“And” between values parts separate entries of the source, which are not always exact repeats. Equal entries are not always repeated.
Experiments:
Assay in all cases: MTT assay, growth inhibition by deguelin or deguelin derivatives
Assay type in all cases: cell-based
Details in all cases: 3 days; for % control: control = 1
H460 = test system: H460
H596 = test system: H596
A549 = test system: A549
H1299 = test system: H1299

COc1cc2c(cc1OC)C1C(=O)c3ccc4c(c3OC1CO2)CC([Se]c1ccccc1)C(C)(C)O4 (stereo not drawn) [Drug 12]
Average (MTT assay reading) (H460; H460, 0.01 μM): 0.7451 | MTT assay reading, replicate well (H460; H460, 0.01 μM): 0.763 and 0.753 and 0.691 and 0.648 and 0.765 and 0.774 and 0.822 | % control (H460; H460, 0.01 μM): 0.64 | Average (MTT assay reading) (H460; H460, 0.1 μM): 0.721 | MTT assay reading, replicate well (H460; H460, 0.1 μM): 0.603 and 0.593 and 0.691 and 0.781 and 0.732 and 0.815 and 0.832 | % control (H460; H460, 0.1 μM): 0.62 | Average (MTT assay reading) (H460; H460, 0.5 μM): 0.7127 | MTT assay reading, replicate well (H460; H460, 0.5 μM): 0.621 and 0.714 and 0.653 and 0.739 and 0.77 and 0.758 and 0.734 | % control (H460; H460, 0.5 μM): 0.61 | Average (MTT assay reading) (H460; H460, 1 μM): 0.7406 | MTT assay reading, replicate well (H460; H460, 1 μM): 0.709 and 0.659 and 0.698 and 0.79 and 0.717 and 0.805 and 0.806 | % control (H460; H460, 1 μM): 0.63 | Average (MTT assay reading) (H596; H596, 0.01 μM): 1.421 | MTT assay reading, replicate well (H596; H596, 0.01 μM): 1.468 and 1.111 and 1.465 and 1.374 and 1.701 and 1.481 and 1.344 | % control (H596; H596, 0.01 μM): 0.86 | Average (MTT assay reading) (H596; H596, 0.1 μM): 1.683 | MTT assay reading, replicate well (H596; H596, 0.1 μM): 1.911 and 1.663 and 1.92 and 1.666 and 1.398 and 1.603 and 1.623 | % control (H596; H596, 0.1 μM): 1.01 | Average (MTT assay reading) (H596; H596, 0.5 μM): 1.737 | MTT assay reading, replicate well (H596; H596, 0.5 μM): 1.686 and 1.82 and 1.177 and 1.899 and 1.872 and 2.048 and 1.655 | % control (H596; H596, 0.5 μM): 1.05 | Average (MTT assay reading) (H596; H596, 1 μM): 1.531 | MTT assay reading, replicate well (H596; H596, 1 μM): 1.143 and 1.448 and 1.604 and 1.637 and 1.497 and 1.557 and 1.828 | % control (H596; H596, 1 μM): 0.92 | Average (MTT assay reading) (A549; A549, 0.01 μM): 0.6226 | MTT assay reading, replicate well (A549; A549, 0.01 μM): 0.58 and 0.633 and 0.616 and 0.636 and 0.715 and 0.577 and 0.601 | % control (A549; A549, 0.01 μM): 1.08 | Average (MTT assay reading) (A549; A549, 0.1 μM): 0.6147 | MTT assay reading, replicate well (A549; A549, 0.1 μM): 0.604 and 0.545 and 0.597 and 0.519 and 0.606 and 0.719 and 0.713 | % control (A549; A549, 0.1 μM): 1.06 | Average (MTT assay reading) (A549; A549, 0.5 μM): 0.5669 | MTT assay reading, replicate well (A549; A549, 0.5 μM): 0.533 and 0.614 and 0.532 and 0.584 and 0.567 and 0.553 and 0.585 | % control (A549; A549, 0.5 μM): 0.98 | Average (MTT assay reading) (A549; A549, 1 μM): 0.5701 | MTT assay reading, replicate well (A549; A549, 1 μM): 0.534 and 0.536 and 0.557 and 0.571 and 0.586 (2×) and 0.621 | % control (A549; A549, 1 μM): 0.99 | Average (MTT assay reading) (H1299; H1299, 0.01 μM): 0.5509 | MTT assay reading, replicate well (H1299; H1299, 0.01 μM): 0.513 and 0.438 and 0.626 and 0.426 and 0.609 and 0.729 and 0.515 | % control (H1299; H1299, 0.01 μM): 0.72 | Average (MTT assay reading) (H1299; H1299, 0.1 μM): 0.4999 | MTT assay reading, replicate well (H1299; H1299, 0.1 μM): 0.514 and 0.55 and 0.568 and 0.409 and 0.465 and 0.466 and 0.527 | % control (H1299; H1299, 0.1 μM): 0.65 | Average (MTT assay reading) (H1299; H1299, 0.5 μM): 0.628 | MTT assay reading, replicate well (H1299; H1299, 0.5 μM): 0.637 and 0.549 and 0.636 and 0.614 and 0.847 and 0.655 and 0.458 | % control (H1299; H1299, 0.5 μM): 0.82 | Average (MTT assay reading) (H1299; H1299, 1 μM): 0.4001 | MTT assay reading, replicate well (H1299; H1299, 1 μM): 0.434 and 0.41 and 0.413 and 0.451 and 0.378 and 0.357 and 0.358 | % control (H1299; H1299, 1 μM): 0.52

COc1cc2c(cc1OC)C1C(=O)c3ccc4c(c3OC1CO2)CCC(C)(C)O4 (stereo not drawn) [Drug 11]
Average (MTT assay reading) (H460; H460, 0.01 μM): 0.6664 | MTT assay reading, replicate well (H460; H460, 0.01 μM): 0.67 and 0.672 and 0.578 and 0.697 and 0.719 and 0.651 and 0.678 | % control (H460; H460, 0.01 μM): 0.57 | Average (MTT assay reading) (H460; H460, 0.1 μM): 0.3214 | MTT assay reading, replicate well (H460; H460, 0.1 μM): 0.352 and 0.354 and 0.375 and 0.234 and 0.26 and 0.303 and 0.372 | % control (H460; H460, 0.1 μM): 0.27 | Average (MTT assay reading) (H460; H460, 0.5 μM): 0.3358 | MTT assay reading, replicate well (H460; H460, 0.5 μM): 0.372 and 0.35 and 0.36 and 0.296 and 0.2577 and 0.283 and 0.432 | % control (H460; H460, 0.5 μM): 0.29 | Average (MTT assay reading) (H460; H460, 1 μM): 0.3296 | MTT assay reading, replicate well (H460; H460, 1 μM): 0.314 (2×) and 0.376 and 0.344 and 0.302 and 0.291 and 0.366 | % control (H460; H460, 1 μM): 0.28 | Average (MTT assay reading) (H596; H596, 0.01 μM): 1.262 | MTT assay reading, replicate well (H596; H596, 0.01 μM): 1.286 and 1.422 and 1.376 and 1.041 and 1.247 and 1.293 and 1.168 | % control (H596; H596, 0.01 μM): 0.76 | Average (MTT assay reading) (H596; H596, 0.1 μM): 0.6487 | MTT assay reading, replicate well (H596; H596, 0.1 μM): 0.677 and 0.894 and 0.729 and 0.59 and 0.476 and 0.579 and 0.596 | % control (H596; H596, 0.1 μM): 0.39 | Average (MTT assay reading) (H596; H596, 0.5 μM): 0.4131 | MTT assay reading, replicate well (H596; H596, 0.5 μM): 0.469 and 0.448 and 0.439 and 0.322 and 0.282 and 0.424 and 0.508 | % control (H596; H596, 0.5 μM): 0.25 | Average (MTT assay reading) (H596; H596, 1 μM): 0.4389 | MTT assay reading, replicate well (H596; H596, 1 μM): 0.385 and 0.377 and 0.447 and 0.585 and 0.404 and 0.429 and 0.445 | % control (H596; H596, 1 μM): 0.26 | Average (MTT assay reading) (A549; A549, 0.01 μM): 0.7456 | MTT assay reading, replicate well (A549; A549, 0.01 μM): 0.779 and 0.766 and 0.723 and 0.736 and 0.77 and 0.75 and 0.695 | % control (A549; A549, 0.01 μM): 1.29 | Average (MTT assay reading) (A549; A549, 0.1 μM): 0.3701 | MTT assay reading, replicate well (A549; A549, 0.1 μM): 0.343 and 0.313 and 0.358 and 0.362 and 0.405 and 0.375 and 0.435 | % control (A549; A549, 0.1 μM): 0.64 | Average (MTT assay reading) (A549; A549, 0.5 μM): 0.4303 | MTT assay reading, replicate well (A549; A549, 0.5 μM): 0.355 and 0.444 and 0.514 and 0.418 and 0.47 and 0.413 and 0.398 | % control (A549; A549, 0.5 μM): 0.75 | Average (MTT assay reading) (A549; A549, 1 μM): 0.345 | MTT assay reading, replicate well (A549; A549, 1 μM): 0.303 and 0.302 and 0.313 and 0.359 and 0.422 and 0.316 and 0.4 | % control (A549; A549, 1 μM): 0.60 | Average (MTT assay reading) (H1299; H1299, 0.01 μM): 0.5019 | MTT assay reading, replicate well (H1299; H1299, 0.01 μM): 0.573 and 0.553 and 0.567 and 0.483 and 0.493 and 0.424 and 0.42 | % control (H1299; H1299, 0.01 μM): 0.65 | Average (MTT assay reading) (H1299; H1299, 0.1 μM): 0.2847 | MTT assay reading, replicate well (H1299; H1299, 0.1 μM): 0.302 and 0.338 and 0.317 and 0.271 and 0.215 and 0.272 and 0.278 | % control (H1299; H1299, 0.1 μM): 0.37 | Average (MTT assay reading) (H1299; H1299, 0.5 μM): 0.3656 | MTT assay reading, replicate well (H1299; H1299, 0.5 μM): 0.275 and 0.579 and 0.324 and 0.32 and 0.398 and 0.294 and 0.369 | % control (H1299; H1299, 0.5 μM): 0.48 | Average (MTT assay reading) (H1299; H1299, 1 μM): 0.2179 | MTT assay reading, replicate well (H1299; H1299, 1 μM): 0.157 and 0.202 and 0.236 and 0.233 and 0.217 and 0.262 and 0.218 | % control (H1299; H1299, 1 μM): 0.28

From patent US20060128792A1, “Deguelin as a chemopreventive agent for lung cancer” (priority 2002, published 2006)
